Assay results from US10053487B2, “Neuroactive 19-alkoxy-17(20)-Z-vinylcyano-substituted steroids, prodrugs thereof, and methods of treatment using same” (priority 2012, dated 2018).
Like-named read-outs stand apart in the source and are kept apart here.

Key:
[1] = biological target: T1, GABAA receptors (picrotoxin binding site); experiment: [35S]-TBPS displacement (non-competitive displacement from the picrotoxin binding site); settings: duplicate experiments performed in triplicate; ± SEM; read-out: Inhibition of [35S]-TBPS binding, IC50
T1 construct: other: duplicate experiments performed in triplicate; ± SEM; other: Hill coefficient
Method: (§1) The IC50 values for the compounds of Scheme 1 (i.e., Compounds 1 and 2) as non-competitive displacers of [^35S]-TBPS from the picrotoxin binding site on GABAA receptors are reported in Table 1.
(§2) Results presented are from duplicate experiments performed in triplicate. Error limits are calculated as standard error of the mean. Methods used are known in the art (see, e.g., E. Stastna, et al., Neurosteroid Analogues. 16. A New Explanation for the Lack of Anesthetic Effects in Δ^16-Alphaxalone and Identification of a Δ^17(20) Analogue with Potent Anesthetic Activity, J. Med. Chem., 54(11), pp. 3926-34 (2011)).

tadpoles = experiment: Tadpole loss of righting reflex (LRR) and loss of swimming reflex (LSR); assay type: in vivo; settings: ± SEM
Excerpt: Table 3 discloses the anesthetic effects of the compounds of the present disclosure. In particular, the anesthetic effect of the compounds of the present disclosure on Loss of Righting Reflex (LRR) and Loss of Swimming Reflex (LSR).
A quantal dose-response curve for loss of righting reflect (LRR) and loss of swimming reflex (LSR) caused by Compound 1 in tadpoles, is illustrated in FIG. 3, as well. ^aMethods used are known in the art (see, e.g., E. Stastna, et al., Neurosteroid Analogues. 16. A New Explanation for the Lack of Anesthetic Effects in Δ^16-Alphaxalone and Identification of a Δ^17(20) Analogue with Potent Anesthetic Activity, J. Med. Chem., 54(11), pp. 3926-34 (2011)). Error limits are calculated as standard error of the mean (N=10 or more animals at each of five or more different concentrations).

[2] = biological target: T2, rat α1β2γ2L type GABAA receptors expressed in Xenopus laevis oocytes (Rattus norvegicus, UniProt P62813+P63138); experiment: Oocyte electrophysiology: potentiation of chloride currents mediated by 2 μM GABA, and direct gating; assay type: cell-based; settings: ± SEM, N≥4; for Ratio of currents measured in the presence/absence of added compound, 0.1 μM: 0.1 μM compound; for Ratio of currents measured in the presence/absence of added compound, 0.1 μM / Ratio of currents measured in the presence/absence of added compound, 1 μM / Ratio of currents measured in the presence/absence of added compound, 10 μM: 2 μM GABA; for Ratio of currents measured in the presence/absence of added compound, 1 μM: 1 μM compound; for Ratio of currents measured in the presence/absence of added compound, 10 μM: 10 μM compound; for (gating) 10 μM: ratio of compound only current/2 μM GABA current: direct current gated by 10 μM compound in the absence of GABA
T2 construct: expressed in transfected cells; host or cells: Xenopus laevis oocytes
T2 sequence (P62813 28-455): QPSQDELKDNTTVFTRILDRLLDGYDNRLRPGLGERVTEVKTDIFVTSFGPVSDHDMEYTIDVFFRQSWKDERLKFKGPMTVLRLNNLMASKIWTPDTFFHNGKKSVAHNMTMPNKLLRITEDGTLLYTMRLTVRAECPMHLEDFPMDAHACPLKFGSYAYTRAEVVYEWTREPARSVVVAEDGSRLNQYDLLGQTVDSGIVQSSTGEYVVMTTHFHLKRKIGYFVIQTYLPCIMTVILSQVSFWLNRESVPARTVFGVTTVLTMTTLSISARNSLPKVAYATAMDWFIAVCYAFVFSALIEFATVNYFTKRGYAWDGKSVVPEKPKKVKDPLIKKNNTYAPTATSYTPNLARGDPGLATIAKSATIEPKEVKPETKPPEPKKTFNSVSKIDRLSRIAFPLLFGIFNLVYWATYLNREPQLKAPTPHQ
T2 sequence (P63138 26-474): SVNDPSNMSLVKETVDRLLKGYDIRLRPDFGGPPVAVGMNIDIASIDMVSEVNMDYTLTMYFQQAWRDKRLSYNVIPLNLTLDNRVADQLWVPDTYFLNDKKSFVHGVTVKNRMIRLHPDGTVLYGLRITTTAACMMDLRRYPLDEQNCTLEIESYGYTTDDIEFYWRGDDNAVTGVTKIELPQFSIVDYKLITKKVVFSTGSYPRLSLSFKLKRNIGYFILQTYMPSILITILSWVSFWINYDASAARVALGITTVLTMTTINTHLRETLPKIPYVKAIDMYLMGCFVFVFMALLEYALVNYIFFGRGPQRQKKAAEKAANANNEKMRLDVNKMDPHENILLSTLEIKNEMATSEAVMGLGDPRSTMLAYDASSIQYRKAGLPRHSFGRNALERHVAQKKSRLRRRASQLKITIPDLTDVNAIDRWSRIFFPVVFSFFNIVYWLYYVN
T2 sequence (P18508 other isoform, or with tags, fused parts or gaps INS375LLRMFSFK, further chain): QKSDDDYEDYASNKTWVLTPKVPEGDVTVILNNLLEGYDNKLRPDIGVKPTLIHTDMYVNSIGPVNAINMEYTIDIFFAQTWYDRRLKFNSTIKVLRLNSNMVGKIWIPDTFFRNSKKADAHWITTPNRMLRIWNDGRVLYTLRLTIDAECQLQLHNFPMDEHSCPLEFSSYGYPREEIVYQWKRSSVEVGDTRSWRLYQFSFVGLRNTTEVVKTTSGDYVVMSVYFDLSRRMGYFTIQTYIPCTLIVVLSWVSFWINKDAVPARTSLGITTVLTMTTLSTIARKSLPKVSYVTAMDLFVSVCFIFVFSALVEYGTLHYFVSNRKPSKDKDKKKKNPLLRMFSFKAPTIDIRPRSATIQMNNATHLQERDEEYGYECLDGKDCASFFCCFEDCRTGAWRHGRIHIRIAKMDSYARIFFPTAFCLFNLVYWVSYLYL
Method: The compounds of the present disclosure were evaluated for the ability to potentiate chloride currents mediated by 2 μM GABA at rat α1β2γ2L type GABAA receptors expressed in Xenopus laevis oocytes and the results are shown in Table 2.
The potentiation of 2 μM GABA-mediated chloride currents at rat α1β2γ2-type GABAA receptors expressed in frog oocytes by different concentrations of Compound 1, is illustrated by the curves in FIG. 2, as well. ^aThe GABA concentration used for the control response was 2 μM. Each compound was evaluated on at least four different oocytes at the concentrations indicated, and the results reported are the ratio of currents measured in the presence/absence of added compound. Gating represents direct current gated by 10 μM compound in the absence of GABA, and this current is reported as the ratio of compound only current/2 μM GABA current. Error limits are calculated as standard error of the mean (N≥4). Methods used are known in the art (see, e.g., E. Stastna, et al., Neurosteroid Analogues. 16. A New Explanation for the Lack of Anesthetic Effects in Δ^16-Alphaxalone and Identification of a Δ^17(20) Analogue with Potent Anesthetic Activity, J. Med. Chem., 54(11), pp. 3926-34 (2011)).

[3] = tested on: GABAA receptors (picrotoxin binding site); experiment: [35S]-TBPS displacement (non-competitive displacement from the picrotoxin binding site)
Method: as §1, §2

GABAA receptors = settings: background statement; cited from earlier work
[4] = loss of righting reflex, read-out: Tadpole LRR EC50
[5] = loss of swimming reflex, read-out: Tadpole LSR EC50
[6] = [35S]-TBPS displacement, hydrogenated Δ17(20) double bond

Structure (SMILES) | IC50 [1] [nM] | melting point [°C] | EC50 (tadpoles; [4]) [nM] | EC50 (tadpoles; [5]) [nM] | Ratio of currents measured in the presence/absence of added compound, 0.1 μM [2] | Ratio of currents measured in the presence/absence of added compound, 1 μM [2] | Ratio of currents measured in the presence/absence of added compound, 10 μM [2] | (gating) 10 μM: ratio of compound only current/2 μM GABA current [2] | other results
COC[C@]12CC[C@@H](O)C[C@@H]1CC[C@@H]1[C@@H]2CC[C@]2(C)/C(=C\C#N)CC[C@@H]12 [Compound 1, [3α,5α,17(20)Z]-19-methoxypregn-17(20)-ene-21-nitrile] | 42 ± 4 | 166 to 168 | 159 ± 25 | 970 ± 65 | 2.88 ± 0.90 | 15.27 ± 2.58 | 45.80 ± 15.79 | 0.19 ± 0.08 | –
COC[C@]12CC[C@@H](O)C[C@@H]1CC[C@@H]1[C@@H]2CC[C@]2(C)/C(=C/C#N)CC[C@@H]12 [Compound 2, [3α,5α,17(20)E]-19-methoxypregn-17(20)-ene-21-nitrile] | 657 ± 114 | 185 to 188 | 2780 ± 560 | ~10000 | 0.69 ± 0.11 | 1.26 ± 0.22 | 2.97 ± 0.33 | 0.31 ± 0.25 | –
C[C@]12CC[C@@H](O)C[C@@H]1CC[C@H]1[C@@H]3CC[C@H](CC#N)[C@@]3(C)CC(=O)[C@@H]12 [Compound 5c] | – | – | – | – | – | – | – | – | Fold decrease of IC50 value relative to Compound 6b [3, 6]: about twofold; Fold increase of IC50 value relative to Compound 6a [3, 6]: about eight-fold
C[C@]12CC[C@@H](O)C[C@@H]1CC[C@@H]1[C@@H]2C(=O)C[C@]2(C)/C(=C\C#N)CC[C@@H]12 [Compound 6a] | – | – | – | – | – | – | – | – | Fold more potent at displacing [35S]-TBPS than the E isomer ([3]; Z isomer versus E isomer (Compound 6a versus Compound 6b)): about 17 fold
CC(=O)C1=CC[C@H]2[C@@H]3CC[C@H]4C[C@H](O)CC[C@]4(C)[C@H]3C(=O)C[C@]12C [Δ^16-alphaxalone] | – | – | – | – | – | – | – | – | Allosteric activity at GABAA receptors, in contrast to alphaxalone (GABAA receptors): greatly diminished allosteric activity
